Assay results: ChEMBL document CHEMBL1154429, “Identifying mutator phenotypes among fluoroquinolone-resistant strains of Streptococcus pneumoniae using fluctuation analysis” (2007)

Experiments:
Format in all cases: functional
Streptococcus pneumoniae [1] = test: Antibacterial activity against Streptococcus pneumoniae D39-3 with parC S79Y, gyrA S81F mutation by […]
Streptococcus pneumoniae [2] = test: Antibacterial activity against Streptococcus pneumoniae 3386 with parC S79F, gyrA S81F mutation by […]
Streptococcus pneumoniae [3] = test: Antibacterial activity against Streptococcus pneumoniae 455 with parC S79Y, gyrA S81F mutation by […]

Measured: MIC

C[C@H]1COc2c(N3CCN(C)CC3)c(F)cc3c(=O)c(C(=O)O)cn1c23.C[C@H]1COc2c(N3CCN(C)CC3)c(F)cc3c(=O)c(C(=O)O)cn1c23.O [LEVOFLOXACIN]
> 32 µg/mL: all assays above
